From publication PMC11013284, “Chemoselective Synthesis and Anti-Kinetoplastidal Properties of 2,6-Diaryl-4H-tetrahydro-thiopyran-4-one S-Oxides: Their Interplay in a Cascade of Redox Reactions from Diarylideneacetones” (Molecules, 2024)
Like-named read-outs stand apart in the source and are kept apart here.

Columns and labels:
[1] = system: L. infantum (MHOM/MA(BE)/67) amastigotes in primary peritoneal mouse macrophages; assay: L. infantum intramacrophage amastigote assay (microscopic burden); type: cell-based, Leishmania infantum; details: 5 days, mouse macrophages as host
Method: L. infantum (MHOM/MA(BE)/67 strain) amastigote were incubated for 5 days in 96-well plates with five concentrations of compound (64, 16, 4, 1, and 0.25 μM). Primary peritoneal mouse macrophages were used as host cells. Parasite burdens (i.e., the number of amastigotes per macrophage) were microscopically assessed. The results were expressed as a percentage reduction in parasite burden compared to untreated control wells, and an IC50 was calculated.

[2] = system: WT LV9 L. donovani intramacrophage amastigotes; assay: L. donovani intramacrophage amastigote assay; type: cell-based, Leishmania donovani; details: for IC50: WT LV9, ± SD in Tables S5/S6, read-out: IC50 L. donovani intramacrophage amastigotes
[3] = system: L. donovani LV9 axenic amastigotes; assay: L. donovani axenic amastigote assay (SYBR green I); type: cell-based, Leishmania donovani
Method: L. donovani amastigote forms were suspended to yield 10^7 cells/mL. The final compound concentrations used were 100 µM, 10 µM, 1 µM, 500 nM, and 50 nM. Duplicates were used for each concentration. Cultures were incubated at 37 °C for 72 h in the dark and under a 5% CO2 atmosphere; then, the viability of the amastigotes was assessed using the SYBR® green I (Invitrogen, France) incorporation method. Parasite growth was determined by using SYBR® Green I, a dye with marked fluorescence enhancement upon contact with parasite DNA. Parasites were lysed following Direct PCReCell Genotyping without DNA isolation protocol (Euromedex, Souffelweyersheim, France). A total of […] of SYBR Green I was added to each well, and the contents were mixed. Fluorescence was measured with Mastercylcer® ep realplex (Eppendorf, Montesson, France). The fluorescence obtained was compared to those from the range obtained with different parasite densities.

[4] = system: Trypanosoma brucei brucei trypomastigotes, suramin-sensitive strain (Squib 427); assay: T. b. brucei growth/viability assay (resazurin); type: cell-based; details: 3 days
Method: After 3 days, parasite growth was assessed fluorimetrically following the addition of resazurin. After 24 h at 37 °C, fluorescence was measured (λex = 550 nm, λem = 590 nm). The results were expressed as a percentage reduction in parasite growth/viability compared to control wells, and a 50% inhibitory concentration (IC50) was calculated.

[5] = system: Trypanosoma cruzi (Tulahuen CL2 β-galactosidase) amastigotes in hMRC-5SV2 cells; assay: T. cruzi intracellular amastigote assay (β-galactosidase/CPRG); type: cell-based
Method: A nifurtimox-sensitive strain (Tulahuen CL2 β-galactosidase) in human lung fibroblast hMRC-5SV2 cells was incubated for 7 days in 96-well plates with five concentrations of compound (64, 16, 4, 1, and 0.25 μM). The parasitic burden was evaluated through the activity of the enzyme β-galactosidase on a specific chlorophenol red ß-D-galactopyranoside (CPRG) substrate. Live parasites converted the yellow-orange CPRG substrate into the red chromophore chlorophenol red, yielding a dark-red solution, which could be quantitatively measured at 540 nm after 4 h of incubation at 37 °C. The results were expressed as a percentage reduction in parasite growth/viability compared to control wells, and an IC50 was calculated.

in vitro = details: human, CC50 hMRC-5 (cytotoxicity)
Method: (§1) The cytotoxicity of compounds was evaluated toward human diploid embryonic lung fibroblast hMRC-5SV2 cells, derived from fetal lung tissue and first described in 1970. hMRC-5SV2 cells were cultured in 96-well plates with five concentrations of the compound (64, 16, 4, 1, and 0.25 μM). After 3 days of incubation, the cell viability was assessed fluorimetrically after the addition of resazurin, and fluorescence was measured (λex = 550 nm, λem = 590 nm). The results were expressed as a percentage reduction in cell growth/viability compared to control wells, and a 50% cytotoxic concentration (CC50) was calculated. The reference cytotoxic drugs were tamoxifen or ivermectin. Additionally, toxicity toward mouse macrophages was qualitatively observed. Three concentrations were included (64, 16, and 4 µM), and the range of toxicity was ranked from the least toxic to the most toxic compound.

[6] = system: L. infantum (MHOM/MA(BE)/67) amastigotes in primary peritoneal mouse macrophages; set-up: method as in earlier work; details: Table 1, preliminary study; cited from earlier work
[7] = Solubility observations (crystals in assay, insolubility in solvents); type: physicochemical; details: for solubility (observation): almost all types of solvent, even at very low concentrations
[8] = system: human diploid embryonic lung fibroblast hMRC-5SV2 cells; assay: in vitro; details: human, 3 days
Method: as §1

murine macrophages = assay: Qualitative toxicity toward mouse macrophages; details: concentration at which toxicity was observed; 64, 16 and 4 µM tested
Method: as §1

[9] = system: Trypanosoma brucei brucei trypomastigotes, suramin-sensitive strain (Squib 427); set-up: method as in earlier work; details: Table 1, preliminary study; read-out: IC50 T. b. brucei; cited from earlier work
[10] = system: Trypanosoma cruzi (Tulahuen CL2 β-galactosidase) amastigotes in hMRC-5SV2 cells; set-up: method as in earlier work; details: Table 1, preliminary study; read-out: IC50 T. cruzi; cited from earlier work
[11] = Leishmania infantum, Macrophage, 120 h
[12] = Trypanosoma cruzi, TULAHUEN, 168 h, intracellular amastigotes, 7 days, read-out: IC50 T. cruzi intramacrophage amastigotes (converted)

| SMILES | IC50 [1, 11] | IC50 ([4]; Trypanosoma brucei, 72 h) | IC50 [5, 12] | CC50 at 3 days (in vitro) | Toxicity (T) observed toward murine macrophages (murine macrophages) | IC50 [9] | also measured |
| --- | --- | --- | --- | --- | --- | --- | --- |
| CN(C)c1ccc(/C=C/C(=O)/C=C/c2ccc(N(C)C)cc2)cc1 [1u] | > 64000 nM | 800 nM | 36900 nM | 62300 nM | – | – | IC50 ([2]; Leishmania donovani): 6300 ± 800 nM; IC90 ([2]; Leishmania donovani, Table S6, read-out: IC90 ± SD LV9 intramacrophage amastigotes): 7800 ± 1000 nM; IC99 ± SD LV9 intramacrophage amastigotes ([2]; Table S6): 9.9 ± 1.3 µM; IC50 ([3]; Leishmania donovani, LV9, read-out: IC50 ± SD L. donovani axenic amastigotes): 8700 ± 600 nM; IC90 ([3]; Leishmania donovani, Table S6, read-out: IC90 ± SD LV9 axenic amastigotes): 64200 ± 700 nM; IC99 ± SD LV9 axenic amastigotes ([3]; Table S6): 567.3 ± 0.9 µM; observed macrophage death / lysis observed at (macrophages): 200 µM |
| O=C(/C=C/c1ccc(C(F)(F)F)cc1)/C=C/c1ccc(C(F)(F)F)cc1 [1r] | > 64000 nM | 200 nM | 1600 nM | 26200 nM | – | – | IC50 [6]: > 64000 nM |
| O=C(/C=C/c1ccccc1)/C=C/c1ccccc1 [1a] | 20300 nM | 400 nM | – | 52900 nM | – | – | IC50 ([2]; Leishmania donovani): > 100000 nM; presence of crystals, concentration range ([7]; noted in L. donovani assay, Table S5): 12.5 to 200 µM; IC50 ([5]; Trypanosoma cruzi, TULAHUEN, 168 h, read-out: IC50 T. cruzi intramacrophage amastigotes): 16000 nM; observed macrophage death / lysis observed at (macrophages): 200 µM |
| COc1ccc(C2CC(=O)CC(c3ccc(OC)cc3)S2(=O)=O)cc1 (stereo not drawn) [4′d, cis-2,6-Di-(p-anisyl)-4H-tetrahydrothiopyran-4-one 1,1-dioxide] | – | – | – | – | T1 (T1 = 64) | – | IC50 [1]: 20300 nM; solubility (observation) [7]: insolubility; solubility (observation) ([7]; listed as 4’d): Solubility issues; IC50 [4]: 2100 nM; IC50 ([5]; intracellular amastigotes, 7 days, read-out: IC50 T. cruzi intramacrophage amastigotes (converted)): 34400 nM; CC50 [8]: ≥ 64000 nM |
| Cl.Cl.O=C(/C=C/c1cccnc1)/C=C/c1cccnc1 [1x] | 1000 nM | ≤ 300 nM | 900 nM | 1100 nM | T1 (T1 = 64) | ≤ 300 nM | – |
| COc1cc(Br)c(O)c(/C=C/C(=O)/C=C/c2cc(OC)cc(Br)c2O)c1 [1p] | 1000 nM | ≤ 300 nM | ≤ 300 nM | 1000 nM | T1 (T1 = 64) | ≤ 300 nM | IC50 [10]: ≤ 300 nM |
| Cl.Cl.O=C(/C=C/c1ccncc1)/C=C/c1ccncc1 [1y] | 1000 nM | ≤ 300 nM | ≤ 300 nM | 1100 nM | T3 (T3 = 4) | ≤ 300 nM | IC50 [10]: ≤ 300 nM |
